Reference: article PMC9508125, “The evolutionary advantage of an aromatic clamp in plant family 3 glycoside exo-hydrolases” (Nature Communications, 2022)
Where a chain is given by its changes, count along the chain named.

Assays:
Test in all cases: Steady-state apparent kinetic constants with substrates
Format in all cases: biochemical
HvExoI W434F mutant = target: T1, HvExoI W434F mutant (Hordeum vulgare, UniProt Q9XEI3, W459F); settings: substance is the substrate
T1 sequence (Q9XEI3 26-630 W459F): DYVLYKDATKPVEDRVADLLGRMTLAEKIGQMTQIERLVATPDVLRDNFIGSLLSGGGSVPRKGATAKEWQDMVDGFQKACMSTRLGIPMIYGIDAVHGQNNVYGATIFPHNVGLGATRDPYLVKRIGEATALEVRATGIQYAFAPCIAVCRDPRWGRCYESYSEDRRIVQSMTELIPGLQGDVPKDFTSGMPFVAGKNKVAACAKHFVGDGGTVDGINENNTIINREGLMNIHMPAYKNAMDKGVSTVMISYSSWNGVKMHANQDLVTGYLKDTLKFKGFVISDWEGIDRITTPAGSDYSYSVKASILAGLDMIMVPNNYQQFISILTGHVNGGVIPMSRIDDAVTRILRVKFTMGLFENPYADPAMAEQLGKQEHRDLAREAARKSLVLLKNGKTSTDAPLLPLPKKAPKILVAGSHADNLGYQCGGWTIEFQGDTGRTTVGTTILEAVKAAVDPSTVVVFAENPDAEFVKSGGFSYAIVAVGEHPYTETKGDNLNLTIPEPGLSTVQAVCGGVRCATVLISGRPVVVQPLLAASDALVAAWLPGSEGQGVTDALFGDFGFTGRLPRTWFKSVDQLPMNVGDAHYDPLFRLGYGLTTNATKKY
Experimental: (§1) Dependency of activities of WT and mutant HvExoI on pH (McIlvaine buffers in the pH range of 3.5–8.5 at 30 °C) and temperature (100 mM sodium acetate buffer, pH 5.25, temperature range 0–80 °C, 15 min incubations) were determined using 0.2% (w/v) 4NP-Glc[21],[59]. Relative rates of hydrolysis of β-linked poly-, oligosaccharides, and aryl-glucosides were determined using near-homogenous HvExoI at 50 pmoles. […] Kinetic parameters were calculated from the analyses of Michaelis-Menten plots with Grafit 7.0.3[62] and processed by a proportional weighted fit, using nonlinear regression. The relative rates of hydrolysis, kinetic, and inhibition data were rounded to one or two decimal points (Supplementary Tables 2–4).

HvExoI W434Y mutant = target: T2, HvExoI W434Y mutant (Hordeum vulgare, UniProt Q9XEI3, W459Y); settings: substance is the substrate
T2 sequence (Q9XEI3 26-630 W459Y): T1 sequence (Q9XEI3 26-630 W459F) with F434Y
Experimental: as §1

HvExoI W434A mutant = target: T3, HvExoI W434A mutant (Hordeum vulgare, UniProt Q9XEI3, W459A)
T3 sequence (Q9XEI3 26-630 W459A): T1 sequence (Q9XEI3 26-630 W459F) with F434A
Experimental: as §1

| Compound | Km (HvExoI W434F mutant) [µM] | kcat (HvExoI W434F mutant) [s⁻¹] | Km (HvExoI W434Y mutant) [µM] | kcat (HvExoI W434Y mutant) [s⁻¹] | fold decrease of kcat compared to WT (HvExoI W434A mutant) |
| --- | --- | --- | --- | --- | --- |
| laminarin | 200 ± 10 | 8.0 ± 0.7 | 100 ± 10 | 0.8 ± 0.1 | – |
| OC[C@H]1O[C@@H](O[C@H]2[C@H](O)[C@@H](CO)OC(O)[C@@H]2O)[C@H](O)[C@@H](O)[C@@H]1O (some centres unmarked) [Laminaribiose] | – | – | – | – | about 21 fold |
